Measurements taken from PubChem BioAssay (NCI).
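48-hour exposure; five concentrations; linearly interpolated endpoints. GI50 marks 50% less growth. TGI denotes the concentration required for complete inhibition of growth.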

Tests used:
Experiment in all cases: DTP human tumour cell line panel, 48 h
[1] = test system: PC-3 prostate
[2] = test system: MDA-MB-231 breast
[3] = test system: HS 578T breast
[4] = test system: T-47D breast
[5] = test system: MDA-N
[6] = test system: XF 498 CNS
[7] = test system: DLD-1 colon
[8] = test system: M19-MEL melanoma
[9] = test system: HOP-18 NSCLC

Row | Compound | GI50 [1] [µM] | TGI [1] [µM] | GI50 [2] [µM] | TGI [2] [µM] | GI50 [3] [µM] | TGI [3] [µM] | GI50 [4] [µM] | TGI [4] [µM] | TGI [5] [µM] | TGI [6] [µM] | TGI [7] [µM] | TGI [8] [µM] | TGI [9] [µM]
1 | C=C1C(=O)O[C@@H]2[C@@H]3O[C@@](C)(CC/C=C(\C)CCC[C@@H]2C)[C@H](O)C[C@@H]13 | 4.31 | 18.3 | 2.39 | 7.18 | 11.4 | > 100 | 2.02 | 4.7 |  |  |  |  | 
2 | CCN(CC)CCn1c(=N)n(CC(O)c2ccc(Cl)c(Cl)c2)c2ccccc21 (centres undefined) | 5.21 | 19.3 | 5.16 | 20.2 | 4.25 | 21.2 | 4.68 | 19.3 |  |  |  |  | 
3 | COc1ccc(C2SC(N)=Nc3c2c(C)nn3C(=O)c2ccncc2)cc1 (centres undefined) |  | > 100 |  | > 100 |  | > 100 |  | > 100 | > 100 |  |  |  | 
4 | Cc1ccc(CCC(=O)Nc2ncc(Cc3cc(Cl)ccc3Cl)s2)o1 | 0.244 | > 42.8 | 0.388 | 3.35 | 0.289 | 7.2 | 1.22 | > 100 |  |  |  |  | 
5 | O=C(CC1Sc2ccccc2NC1=O)Nc1cccc(Cl)c1 (centres undefined) |  |  |  |  |  |  |  |  |  | 86.5 | > 100 | > 100 | 
6 | COc1cc[c]([Hg][Cl])cc1 | 16.2 | 31.8 | 2.19 | 4.92 | 1.96 | 47.2 | 1.68 | 4.47 |  |  |  |  | 
7 | CN(C)CCCn1cnc2ncccc2c1=O |  |  |  |  |  |  |  |  |  | > 100 | > 100 | > 100 | 
8 | CCCCNC(=S)Nn1c(-c2ccccc2)nc2ccccc2c1=O |  |  |  |  |  |  |  |  |  |  | > 100 | > 100 | > 100
9 | COC(=O)C1=CC(=O)C(C(=O)Nc2ccc(OC)cc2)C(c2ccccc2)O1 (centres undefined) |  |  |  |  |  |  |  |  |  |  | > 100 |  | 
10 | CCc1ccc(Cc2ccc(CC)c(NC(=O)C(=O)Cc3nc4ccccc4nc3C)c2CC)c(CC)c1NC(=O)C(=O)Cc1nc2ccccc2nc1C |  |  |  |  |  |  |  |  |  |  | > 100 | > 100 | 
11 | CC(=O)NNc1nc(C)c(C(/C=C/c2ccc(/C=C/C(=N\NC(=O)c3ccncc3)c3sc(NNC(C)=O)nc3C)cc2)=N/NC(=O)c2ccncc2)s1 |  |  |  |  |  |  |  |  |  |  | > 100 | > 100 | 
12 | COCCNC(=O)C1C(=O)N(CCOC)C(=O)/C1=N/N (centres undefined) |  |  |  |  |  |  |  |  |  | > 100 | > 100 | > 100 | 
13 | CN(NC(=O)/C(=C/c1ccc(O)cc1)NC(=O)c1ccccc1)c1ccnc2cc(Cl)ccc12 |  | 32.7 |  | 40.4 |  | 48.2 |  | 45.6 | 32.2 |  |  |  | 
14 | COc1cc([C@@H]2c3cc4c(cc3[C@H](OC3OC5COC(c6ccccc6)OC5C(O)C3O)[C@H]3COC(=O)[C@H]23)OCO4)cc(OC)c1OC (some centres undefined) | 0.432 | 22.5 | 0.422 | 29 | 0.303 | 1.67 | 1.73 | 5.87 |  |  |  |  | 
15 | CCOC(=O)C(C(=O)c1ccccc1-c1ccccc1C(=O)O)=P(c1ccccc1)(c1ccccc1)c1ccccc1 |  |  |  |  |  |  |  |  |  | 50.2 |  | 72.8 | 
16 | O=c1[nH]nc(-c2ccccc2)c(-c2ccccc2)c1-n1nc(-c2ccccc2)c2ccccc2c1=O |  |  |  |  |  |  |  |  |  |  | > 100 | > 100 | > 100
17 | COc1ccc(C(=O)CC2(O)C(=O)Nc3c(Cl)ccc(Cl)c32)cc1 (centres undefined) | 2.8 | > 100 | 4.27 | > 92.4 | 1.66 | > 24.6 | 9.9 | > 100 |  |  |  |  | 
18 | CN1CCC(O)C(CNC23CC4CC(CC(C4)C2)C3)C1 (centres undefined) |  |  |  |  |  |  |  |  |  | > 100 | > 100 | > 100 | 
19 | C1=C[C@@H]2c3ccc4cnccc4c3NC[C@@H]2C1 |  | > 100 |  |  |  | > 100 |  | > 100 | > 100 |  |  |  | 
20 | COc1cc(-c2cc(-c3ccc(N(C)C)cc3)nc(N3CCC(O)CC3)c2C#N)cc(OC)c1OC | 0.895 | > 100 | 0.392 | 3.55 | 5.66 | > 100 | 0.458 | 4.07 |  |  |  |  | 
21 | O=C1CCCC1C(=O)Nc1ccc2ccccc2c1 (centres undefined) |  | > 100 |  | > 100 |  |  |  | > 100 | > 100 |  |  |  | 
22 | CC(C)Oc1cc(OCC(=O)O)cc(C(=O)N(CCC(N)=O)C(=O)Nc2ccc(C(=O)O)cc2OC(C)C)c1 | > 100 | > 100 | > 100 | > 100 | > 100 | > 100 | > 100 | > 100 |  |  |  |  | 
23 | FC(F)(F)c1ccc2nc(-c3nc(-c4ccccc4)n4ccccc34)[nH]c2c1 | 4.11 | > 100 | 2.04 | 5.39 | 3.65 | 33.6 | 1.71 | 16.9 |  |  |  |  | 
24 | COc1ccc(/C=C2/SC(=Nc3c(C)nn(-c4ccccc4)c3N)NC2=O)cc1 | 4.35 | 77.7 | 9.5 | 69.7 | 2.17 | 6.57 | 3.96 | 45.3 |  |  |  |  | 
25 | O=C(Nc1ccc(Cl)c(Cl)c1)Nc1ccc(Cl)c([N+](=O)[O-])c1 | 0.921 | 3.59 | 2.93 | 7.09 | 3.65 | 16.1 | 0.729 | 2.83 |  |  |  |  | 
26 | CCc1nc(N)nc(N)c1-c1ccc(Cl)cc1 | 5.21 | > 100 | 34.2 | > 100 | > 100 | > 100 | 45.5 | > 100 | > 100 |  |  |  | 
27 | CCOC(=O)c1cnc2ccc(Cl)cc2c1NCCCN(C)C | 27.3 | > 100 | 19.5 | 86.4 | 29.5 | > 100 | 41.5 | > 100 |  |  |  |  | 
28 | Cn1cc(-c2ccc3cc(-c4ccc(CC(=O)Nc5cc(C(C)(C)C)nn5C)cc4)cnc3c2)cn1 | 0.36 | > 100 | 0.317 | > 100 | 0.187 | > 100 | 0.209 | 4.81 |  |  |  |  | 
29 | NC(=O)C/C=C/CC(N)=O |  | > 100 |  | > 100 |  | > 100 |  | > 100 | > 100 |  |  |  | 
30 | COc1ccc(NC(=O)c2ccc(NC3=C(Cl)C(=O)N(Cc4ccccc4)C3=O)cc2)cc1 | 6.74 | 19.9 | 11.9 | 26.2 | 15 | 62.9 | 9.79 | 77.5 |  |  |  |  | 
